Reference: PubChem BioAssay AID248 (DTP/NCI, 2004)
“And” between values parts separate entries of the source, which are not always exact repeats. Identical values can stand only once. Inconclusive results and toxic doses are left out.

System: L1210 leukemia ip in BDF1 mice, survival T/C
Experiment: NCI In Vivo Anticancer Drug Screen. Data for tumor model L1210 Leukemia (intraperitoneal) in B6D2F1 (BDF1) mice
Settings: endpoint: mean survival time, higher = longer survival
Procedure, shortened: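 Each compound was tested against a transplantable tumor grown in mice. The endpoint was survival, with treated animals benchmarked against vehicle controls as a simple ratio.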

[1] = dose: 100.0 mg/kg/injection, schedule: Q04DX003 (ip), vehicle: Klucel (hydroxypropylcellulose) (HPC)
[2] = dose: 200.0 mg/kg/injection, schedule: Q04DX003 (ip), vehicle: Klucel (hydroxypropylcellulose) (HPC)
[3] = dose: 400.0 mg/kg/injection, schedule: Q04DX003 (ip), vehicle: Klucel (hydroxypropylcellulose) (HPC)
[4] = dose: 100.0 mg/kg/injection, schedule: Q04DX003 (ip), vehicle: saline with Tween-80
[5] = dose: 200.0 mg/kg/injection, schedule: Q04DX003 (ip), vehicle: saline with Tween-80
[6] = dose: 400.0 mg/kg/injection, schedule: Q04DX003 (ip), vehicle: saline with Tween-80
[7] = dose: 100.0 mg/kg/injection, schedule: Q04DX003 (ip), vehicle: saline
[8] = dose: 200.0 mg/kg/injection, schedule: Q04DX003 (ip), vehicle: saline
[9] = dose: 400.0 mg/kg/injection, schedule: Q04DX003 (ip), vehicle: saline
[10] = dose: 100.0 mg/kg/injection, schedule: Q01DX001 (ip), vehicle: Klucel (hydroxypropylcellulose) (HPC)
[11] = dose: 100.0 mg/kg/injection, schedule: Q01DX001 (ip), vehicle: saline
[12] = dose: 200.0 mg/kg/injection, schedule: Q01DX001 (ip), vehicle: saline
[13] = dose: 400.0 mg/kg/injection, schedule: Q01DX001 (ip), vehicle: saline
[14] = dose: 200.0 mg/kg/injection, schedule: Q01DX001 (ip), vehicle: Klucel (hydroxypropylcellulose) (HPC)
[15] = dose: 400.0 mg/kg/injection, schedule: Q01DX001 (ip), vehicle: Klucel (hydroxypropylcellulose) (HPC)

## CN(C)c1ccccc1C(=O)NNC(=S)Nc1ccccc1
dose: 100.0 mg/kg/injection, schedule: Q01DX009 (ip), vehicle: Klucel (hydroxypropylcellulose) (HPC)
  T/C: 103 % of control
[1]
  T/C: 96 % of control
dose: 200.0 mg/kg/injection, schedule: Q01DX009 (ip), vehicle: Klucel (hydroxypropylcellulose) (HPC)
  T/C: 96 % of control
[2]
  T/C: 93 % of control
dose: 400.0 mg/kg/injection, schedule: Q01DX009 (ip), vehicle: Klucel (hydroxypropylcellulose) (HPC)
  T/C: 93 % of control
[3]
  T/C: 94 % of control

## CN(C)c1ccc(/C(=N\O)c2cc[n+](C)cc2)cc1
dose: 1.56 mg/kg/injection, schedule: Q01DX009 (ip), vehicle: saline
  T/C: 98 % of control
dose: 3.13 mg/kg/injection, schedule: Q01DX009 (ip), vehicle: saline
  T/C: 111 % of control
dose: 6.25 mg/kg/injection, schedule: Q01DX009 (ip), vehicle: saline
  T/C: 104 % of control

## CN(C)c1ccc(/C=N/NC(=O)c2ccc(O)cc2)c(Cl)c1
dose: 25.0 mg/kg/injection, schedule: Q01DX009 (ip), vehicle: saline with Tween-80
  T/C: 97 % of control and 103 % of control
dose: 50.0 mg/kg/injection, schedule: Q01DX001 (ip), vehicle: saline with Tween-80
  T/C: 86 % of control
dose: 50.0 mg/kg/injection, schedule: Q01DX009 (ip), vehicle: saline with Tween-80
  T/C: 102 % of control and 113 % of control
dose: 100.0 mg/kg/injection, schedule: Q01DX001 (ip), vehicle: saline with Tween-80
  T/C: 88 % of control
dose: 100.0 mg/kg/injection, schedule: Q04DX002 (ip), vehicle: saline with Tween-80
  T/C: 97 % of control and 98 % of control
[4]
  T/C: 104 % of control
dose: 200.0 mg/kg/injection, schedule: Q01DX001 (ip), vehicle: saline with Tween-80
  T/C: 94 % of control
dose: 200.0 mg/kg/injection, schedule: Q04DX002 (ip), vehicle: saline with Tween-80
  T/C: 97 % of control and 91 % of control
[5]
  T/C: 87 % of control
dose: 400.0 mg/kg/injection, schedule: Q01DX009 (ip), vehicle: saline with Tween-80
  T/C: 92 % of control
dose: 400.0 mg/kg/injection, schedule: Q04DX002 (ip), vehicle: saline with Tween-80
  T/C: 94 % of control and 90 % of control
[6]
  T/C: 95 % of control

## O=C(OC(CC[P+](c1ccccc1)(c1ccccc1)c1ccccc1)(C(=O)c1ccccc1)c1ccccc1)c1ccccc1 (centres undefined)
dose: 3.0 mg/kg/injection, schedule: Q04DX003 (ip), vehicle: saline
  T/C: 98 % of control
dose: 6.0 mg/kg/injection, schedule: Q04DX003 (ip), vehicle: saline
  T/C: 103 % of control
dose: 12.0 mg/kg/injection, schedule: Q04DX003 (ip), vehicle: saline
  T/C: 94 % of control
dose: 15.0 mg/kg/injection, schedule: Q01DX001 (ip), vehicle: carboxymethylcellulose (CMC)
  T/C: 90 % of control
dose: 30.0 mg/kg/injection, schedule: Q01DX001 (ip), vehicle: carboxymethylcellulose (CMC)
  T/C: 98 % of control
dose: 60.0 mg/kg/injection, schedule: Q01DX001 (ip), vehicle: carboxymethylcellulose (CMC)
  T/C: 95 % of control
dose: 75.0 mg/kg/injection, schedule: Q01DX001 (ip), vehicle: carboxymethylcellulose (CMC)
  T/C: 88 % of control

## O=NN(CCCl)C(=O)Nc1ccc(CC(=O)O)cc1
dose: 8.0 mg/kg/injection, schedule: Q01DX001 (ip), vehicle: carboxymethylcellulose (CMC)
  T/C: 154 % of control
dose: 12.0 mg/kg/injection, schedule: Q01DX001 (ip), vehicle: carboxymethylcellulose (CMC)
  T/C: 189 % of control
dose: 18.0 mg/kg/injection, schedule: Q01DX001 (ip), vehicle: carboxymethylcellulose (CMC)
  T/C: 226 % of control
dose: 26.0 mg/kg/injection, schedule: Q01DX001 (ip), vehicle: carboxymethylcellulose (CMC)
  T/C: 236 % of control

## C1CCC2C(C1)CCCC2C1C2C3CCCCC3CCC2C2CCC3CCCCC3C21 (centres undefined)
[4]
  T/C: 91 % of control
[5]
  T/C: 91 % of control
[6]
  T/C: 88 % of control

## O=C1CC(N2C(=O)C3C4C=CC(CC4)C3C2=O)C(=O)N1 (centres undefined)
[7]
  T/C: 97 % of control
[8]
  T/C: 97 % of control
[9]
  T/C: 97 % of control

## CCOC(=O)c1[nH]c2ccsc2c1CN1CCCCC1
dose: 50.0 mg/kg/injection, schedule: Q01DX001 (ip), vehicle: Klucel (hydroxypropylcellulose) (HPC)
  T/C: 93 % of control
[10]
  T/C: 101 % of control

## CC(O)CC(=O)NN (centres undefined)
[11]
  T/C: 98 % of control
[12]
  T/C: 100 % of control
[13]
  T/C: 93 % of control

## O=C(CCN1CC1)Nc1ccc(NC(=O)CCN2CC2)cc1
dose: 2.0 mg/kg/injection, schedule: Q01DX009 (ip), vehicle: Klucel (hydroxypropylcellulose) (HPC)
  T/C: 121 % of control
dose: 3.0 mg/kg/injection, schedule: Q01DX009 (ip), vehicle: Klucel (hydroxypropylcellulose) (HPC)
  T/C: 156 % of control
dose: 6.6 mg/kg/injection, schedule: Q01DX009 (ip), vehicle: Klucel (hydroxypropylcellulose) (HPC)
  T/C: 184 % of control
dose: 10.0 mg/kg/injection, schedule: Q04DX003 (ip), vehicle: Klucel (hydroxypropylcellulose) (HPC)
  T/C: 115 % of control
dose: 20.0 mg/kg/injection, schedule: Q01DX009 (ip), vehicle: Klucel (hydroxypropylcellulose) (HPC)
  T/C: 97 % of control
dose: 40.0 mg/kg/injection, schedule: Q04DX003 (ip), vehicle: Klucel (hydroxypropylcellulose) (HPC)
  T/C: 171 % of control and 181 % of control

## COc1ccc2c(c1C)CCC13CC(C)C(CC21)OC3=O (centres undefined)
[10]
  T/C: 102 % of control
[14]
  T/C: 101 % of control
[15]
  T/C: 109 % of control

## O=C1c2ccccc2C2(c3ccccc3)C=NNC12c1ccccc1 (centres undefined)
[10]
  T/C: 103 % of control
[1]
  T/C: 106 % of control
[14]
  T/C: 98 % of control
[2]
  T/C: 97 % of control
[15]
  T/C: 95 % of control
[3]
  T/C: 103 % of control

## CC(C)n1cc2c(N)ncnc2n1
dose: 50.0 mg/kg/injection, schedule: Q01DX009 (ip), vehicle: saline
  T/C: 117 % of control
[11]
  T/C: 96 % of control
dose: 100.0 mg/kg/injection, schedule: Q01DX009 (ip), vehicle: saline
  T/C: 104 % of control
[7]
  T/C: 103 % of control
[12]
  T/C: 104 % of control
[8]
  T/C: 108 % of control
[13]
  T/C: 100 % of control
[9]
  T/C: 100 % of control

## c1ccc2c(c1)ccc1cc3cc4cc5c(ccc6ccccc65)cc4cc3cc12
dose: 50.0 mg/kg/injection, schedule: Q04DX002 (ip), vehicle: Klucel (hydroxypropylcellulose) (HPC)
  T/C: 93 % of control
dose: 200.0 mg/kg/injection, schedule: Q04DX002 (ip), vehicle: Klucel (hydroxypropylcellulose) (HPC)
  T/C: 90 % of control

## CCCCCCCCCC(F)CCCCCCCC(=O)O (centres undefined) (tested in a mixture with another compound)
[11]
  T/C: 91 % of control
[12]
  T/C: 91 % of control
[13]
  T/C: 95 % of control

## CC[N+](CC)(CC)CCCNC(c1ccccc1)C(Cl)(Cl)Cl (centres undefined)
dose: 12.5 mg/kg/injection, schedule: Q01DX001 (ip), vehicle: saline
  T/C: 95 % of control
dose: 25.0 mg/kg/injection, schedule: Q01DX001 (ip), vehicle: saline
  T/C: 97 % of control
dose: 50.0 mg/kg/injection, schedule: Q01DX001 (ip), vehicle: saline
  T/C: 95 % of control

## Cc1cc(Sc2cc(C)[n+]([O-])c(C)c2)cc(C)[n+]1[O-]
[1]
  T/C: 103 % of control
[2]
  T/C: 100 % of control
[3]
  T/C: 114 % of control

## CC1(C)CN(Cc2ccccc2)C(C)(C)CN1
dose: 0.19 mg/kg/injection, schedule: Q01DX009 (ip), vehicle: saline with Tween-80
  T/C: 93 % of control
dose: 0.39 mg/kg/injection, schedule: Q01DX009 (ip), vehicle: saline with Tween-80
  T/C: 100 % of control
dose: 0.78 mg/kg/injection, schedule: Q01DX009 (ip), vehicle: saline with Tween-80
  T/C: 106 % of control
dose: 1.56 mg/kg/injection, schedule: Q01DX009 (ip), vehicle: saline with Tween-80
  T/C: 101 % of control
dose: 12.5 mg/kg/injection, schedule: Q04DX003 (ip), vehicle: saline with Tween-80
  T/C: 92 % of control
dose: 25.0 mg/kg/injection, schedule: Q04DX003 (ip), vehicle: saline with Tween-80
  T/C: 103 % of control

## C=C(Cl)c1c(C)cc(C)c(CC#N)c1C
dose: 12.5 mg/kg/injection, schedule: Q01DX009 (ip), vehicle: DMSO
  T/C: 92 % of control
dose: 12.5 mg/kg/injection, schedule: Q04DX003 (ip), vehicle: DMSO
  T/C: 87 % of control
dose: 25.0 mg/kg/injection, schedule: Q01DX009 (ip), vehicle: DMSO
  T/C: 92 % of control
dose: 25.0 mg/kg/injection, schedule: Q04DX003 (ip), vehicle: DMSO
  T/C: 93 % of control
dose: 50.0 mg/kg/injection, schedule: Q04DX003 (ip), vehicle: DMSO
  T/C: 93 % of control
dose: 200.0 mg/kg/injection, schedule: Q04DX003 (ip), vehicle: DMSO
  T/C: 87 % of control
